# Results from patent US8952024B2, “Herbicidal pyrimidone derivatives” (E I du Pont de Nemours and Company, priority 2009, dated 2015).
# How the values were obtained:
# Assay type in all cases: in vivo
# [1] = tested on: ducksalad (Heteranthera limosa); assay: Test B flooded paddy test; conditions: for Plant response rating, Ducksalad: Flood (flooded paddy test), 13 to 15 days
# Summary of the method: (§1)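 2-leaf seedlings; pots flooded 3 cm over soil at treatment; cpd dosed into floodwater, depth kept constant. Greenhouse 13–15 d. Visual rating vs untreated controls, 0 = no effect, 100 = complete control.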
# [2] = tested on: barnyardgrass (Echinochloa crus-galli); assay: Test B flooded paddy test; conditions: for Plant response rating, Barnyardgrass: Flood (flooded paddy test), 13 to 15 days
# Summary of the method: as §1
# [3] = tested on: umbrella sedge (Cyperus difformis); assay: Test B flooded paddy test; conditions: for Plant response rating, Sedge, Umbrella: Flood (flooded paddy test), 13 to 15 days
# Summary of the method: as §1
# rice (Oryza sativa) = assay: Test B flooded paddy test; conditions: for Plant response rating, Rice: Flood (flooded paddy test), 13 to 15 days
# Summary of the method: as §1
# [4] = tested on: barnyardgrass (Echinochloa crus-galli); assay: Test A pre-/postemergence plant response
# Summary of the method: (§2)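 Seeds planted in loam soil/sand blend; test chemicals in non-phytotoxic solvent mixture with surfactant applied as directed soil spray preemergence and, concurrently, postemergence to plants 2–10 cm tall at one- to two-leaf stage. Greenhouse ~10 days; visual injury vs untreated controls, 0 (no effect) to 100 (complete control).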
# [5] = tested on: pigweed (Amaranthus retroflexus); assay: Test A pre-/postemergence plant response
# Summary of the method: as §2
# corn (Zea mays) = assay: Test A pre-/postemergence plant response
# Summary of the method: as §2
# [6] = tested on: large crabgrass (Digitaria sanguinalis); assay: Test A pre-/postemergence plant response
# Summary of the method: as §2
# [7] = tested on: wheat (Triticum aestivum); assay: Test A pre-/postemergence plant response
# Summary of the method: as §2
# [8] = tested on: morningglory (Ipomoea spp.); assay: Test A pre-/postemergence plant response
# Summary of the method: as §2
# [9] = tested on: velvetleaf (Abutilon theophrasti); assay: Test A pre-/postemergence plant response
# Summary of the method: as §2
# [10] = tested on: giant foxtail (Setaria faberii); assay: Test A pre-/postemergence plant response
# Summary of the method: as §2
# [11] = 250 g ai/ha, flooded paddy test, visual rating on 0 to 100 scale (0 no effect, 100 complete control) after 13 to 15 days
# [12] = 62 g ai/ha, scale of 0 to 100 where 0 is no effect and 100 is complete control
# [13] = Postemergence, 125 g ai/ha, 0 to 100 scale where 0 is no effect and 100 is complete control
# [14] = Postemergence, 500 g ai/ha, 0 to 100 scale, 0 = no effect, 100 = complete control, approx. ten days
# [15] = Preemergence, 125 g ai/ha, 0 to 100 scale, 0 = no effect, 100 = complete control
# [16] = Preemergence, 500 g ai/ha, visual injury, 0 to 100 scale (0 no effect, 100 complete control), approx. ten days
# [17] = 125 g ai/ha, scale 0 to 100, 0 is no effect, 100 is complete control
# [18] = Flood, 31 g ai/ha, scale 0 to 100 (0 no effect, 100 complete control)
# [19] = Postemergence, 500 g ai/ha, visual injury, 0 to 100 scale (0 no effect, 100 complete control), approx. ten days
# [20] = Preemergence, 500 g ai/ha, 0 to 100 scale, 0 = no effect, 100 = complete control
smiles,measurement,setting,value
COCCn1c(-c2cccc(Br)c2)ncc(C(=O)C2=C(O)CCCC2=O)c1=O [Compound 139],"Plant response rating, Flood, Ducksalad",[1]; [11],90
same,"Plant response rating, Ducksalad",[1]; [12],75
same,"Plant response rating, Flood, Barnyardgrass",[2]; [11],35
same,"Plant response rating, Barnyardgrass",[2]; [12],10
same,"Plant response rating, Flood, Sedge, Umbrella",[3]; [11],85
same,"Plant response rating, Sedge, Umbrella",[3]; [12],70
same,"Plant response rating, Flood, Rice",rice (Oryza sativa); [11],30
same,"Plant response rating, Rice",rice (Oryza sativa); [12],10
same,"Plant response rating, Barnyardgrass",[4]; [13],60
same,"Plant response rating, Barnyardgrass",[4]; [14],80
same,"Plant response rating, Barnyardgrass",[4]; [15],40
same,"Plant response rating, Barnyardgrass",[4]; [16],90
same,"Plant response rating, Pigweed",[5]; [13],90
same,"Plant response rating, Pigweed",[5]; [14],100
same,"Plant response rating, Pigweed",[5]; [15],70
same,"Plant response rating, Pigweed",[5]; [16],100
same,"Plant response rating, Corn",corn (Zea mays); [13],20
same,"Plant response rating, Corn",corn (Zea mays); [14],40
same,"Plant response rating, Corn",corn (Zea mays); [15],0
same,"Plant response rating, Corn",corn (Zea mays); [16],20
same,"Plant response rating, Crabgrass, Large",[6]; [13],70
same,"Plant response rating, Crabgrass, Large",[6]; [14],80
same,"Plant response rating, Crabgrass, Large",[6]; [15],90
same,"Plant response rating, Crabgrass, Large",[6]; [16],100
same,"Plant response rating, Wheat",[7]; [13],20
same,"Plant response rating, Wheat",[7]; [14],40
same,"Plant response rating, Wheat",[7]; [15],0
same,"Plant response rating, Wheat",[7]; [16],10
same,"Plant response rating, Morningglory",[8]; [13],100
same,"Plant response rating, Morningglory",[8]; [14],100
same,"Plant response rating, Morningglory",[8]; [15],0
same,"Plant response rating, Morningglory",[8]; [16],80
same,"Plant response rating, Velvetleaf",[9]; [13],100
same,"Plant response rating, Velvetleaf",[9]; [14],100
same,"Plant response rating, Velvetleaf",[9]; [15],60
same,"Plant response rating, Velvetleaf",[9]; [16],90
same,"Plant response rating, Foxtail, Giant",[10]; [13],50
same,"Plant response rating, Foxtail, Giant",[10]; [14],80
same,"Plant response rating, Foxtail, Giant",[10]; [15],20
same,"Plant response rating, Foxtail, Giant",[10]; [16],70
CCc1ccc(-n2c(-c3cccc(Br)c3)ncc(C(=O)C3=C(O)CCCC3=O)c2=O)cc1 [Compound 175],"Plant response rating, Ducksalad",[1]; [17],95
same,Ducksalad plant response rating,[1]; [18],75
same,"Plant response rating, Barnyardgrass",[2]; [17],20
same,Barnyardgrass plant response rating,[2]; [18],0
same,"Plant response rating, Sedge, Umbrella",[3]; [17],85
same,"Sedge, Umbrella plant response rating",[3]; [18],75
same,"Plant response rating, Rice",rice (Oryza sativa); [17],0
same,Rice plant response rating,rice (Oryza sativa); [18],0
same,"Plant response rating, Barnyardgrass",[4]; [13],50
same,Barnyardgrass plant response rating,[4]; [19],100
same,"Plant response rating, Barnyardgrass",[4]; [15],0
same,"Plant response rating, Barnyardgrass",[4]; [20],30
same,"Plant response rating, Pigweed",[5]; [13],100
same,Pigweed plant response rating,[5]; [19],100
same,"Plant response rating, Pigweed",[5]; [15],60
same,"Plant response rating, Pigweed",[5]; [20],100
same,"Plant response rating, Corn",corn (Zea mays); [13],0
same,Corn plant response rating,corn (Zea mays); [19],20
same,"Plant response rating, Corn",corn (Zea mays); [15],0
same,"Plant response rating, Corn",corn (Zea mays); [20],0
same,"Plant response rating, Crabgrass, Large",[6]; [13],40
same,"Crabgrass, Large plant response rating",[6]; [19],80
same,"Plant response rating, Crabgrass, Large",[6]; [15],30
same,"Plant response rating, Crabgrass, Large",[6]; [20],50
same,"Plant response rating, Wheat",[7]; [13],0
same,Wheat plant response rating,[7]; [19],0
same,"Plant response rating, Wheat",[7]; [15],0
same,"Plant response rating, Wheat",[7]; [20],0
same,"Plant response rating, Morningglory",[8]; [13],10
same,Morningglory plant response rating,[8]; [19],80
same,"Plant response rating, Morningglory",[8]; [15],0
same,"Plant response rating, Morningglory",[8]; [20],10
same,"Plant response rating, Velvetleaf",[9]; [13],100
same,Velvetleaf plant response rating,[9]; [19],100
same,"Plant response rating, Velvetleaf",[9]; [15],40
same,"Plant response rating, Velvetleaf",[9]; [20],50
same,"Plant response rating, Foxtail, Giant",[10]; [13],30
same,"Foxtail, Giant plant response rating",[10]; [19],80
same,"Plant response rating, Foxtail, Giant",[10]; [15],0
same,"Plant response rating, Foxtail, Giant",[10]; [20],50
